Assay results published in patent US6818798B1, “Process for making a (3R,3′R)-zeaxanthin precursor” (University of Maryland, College Park, priority 2000, dated 2004).

Experiments:
Format in all cases: physicochemical
[1] = Solubility in non-polar hydrocarbon / organic solvents; settings: pentane, hexane, heptane, cyclohexane, petroleum ether (b.p.=35-60° C.)
Procedure: Such solvents include pentane, hexane, heptane, cyclohexane, petroleum ether (b.p.=35-60° C.) and the like. Based on this difference in solubility behavior, a number of processes were developed which allowed the partial separation of 3′-epilutein from (3R,3′R,6′R)-lutein. These methods are a) solvent extraction, b) preferential crystallization, c) Soxhlet extraction, d) enzymatic acylation, and e) supercritical extraction with carbon dioxide. When each of these methods is applied separately to a 1:1 mixture of (3R,3′R,6′R)-lutein and 3′-epilutein, the partial separation of these carotenoids was accomplished and 3′-epilutein was obtained in 77-95% enrichment. […] The enrichment of 3′-epilutein in poorly separated mixtures may be further increased by low-temperature crystallization of (3R,3′R,6′R)-lutein from a C1-4 alcohol. Alcohols suitable for this crystallization include ethanol, methanol, propanol, 2-propanol and the like. The temperature at which the crystallization may be performed is between about −80° C. and about −40° C. […]
While (3R,3′R,6′R)-lutein and (3R,3′R)-zeaxanthin are not acylated with lipase AK or lipase PS, 3′-epilutein undergoes acylation at C-3′ to give 3′-epilutein-3′-acetate. As mentioned above, due to the difference in solubility between (3R,3′R,6′R)-lutein and 3′-epilutein, the enzymatic acylation can be readily carried out in the above-mentioned organic solvents. […]

[2] = Solubility in supercritical carbon dioxide; settings: 5 mg scale
Procedure: The partial separation of (3R,3′R,6′R)-lutein and 3′-epilutein was also found to be quite feasible by the use of supercritical fluid extraction with carbon dioxide.
5 mg of an epimeric mixture of (3R,3′R,6′R)-lutein and 3-epilutein prepared from 97% pure (3R,3′R,6′R)-lutein (Table 2) was mixed with 0.70 g of hydromatrix (mixture of silica gel and diatomaceous earth). This was extracted with carbon dioxide in a Model Prep-Master supercritical fluid extraction apparatus (Suprex-ISCO, Inc., Lincoln, Nebr.). The conditions were as follows: flow=2 ml/min, restrictor temperature=50° C., desorb temperature=10° C., oven temperature=35° C. A two step gradient was employed for extraction of 3′-epilutein. Step one used 100 g of carbon dioxide at 300 atmosphere and step two 50 g of carbon dioxide at 375 atmosphere. Total of 2.4 mg of carotenoids was extracted with this 150 g of carbon dioxide. The extracted carotenoids were shown by HPLC to consist of 3′-epilutein (83%), (3R,3′R,6′R)-lutein (13%), anhydrolutein (2%), and Z-luteins (2%). Approximately 2.5 mg of carotenoids remained in the hydromatrix; these were: (3R,3′R,6′R)-lutein (77%), 3′-epilutein (13%), and (3R,3′R)-zeaxanthin (10%).

Solubility in hexane = settings: printed as solvent volume per mass
Procedure: As pointed out above, the solubility of 3′-epilutein in solvents such as pentane, hexane, heptane, and petroleum ether (b.p.=35-60° C.) is much higher than that of (3R,3′R,6′R)-lutein. However; large scale separation with these non-polar hydrocarbons alone would require large volumes of solvents and is not practical. For example, the low solubility of 3′-epilutein in hexane (13 ml/mg) is indicative of the large volumes of this solvent needed for the partial separation of 3′-epilutein from (3R,3′R,6′R)-lutein by virtue of their differential solubilities. Therefore, a co-solvent may be employed to increase the solubility of 3′-epilutein and at the same time reduce the volume of the hydrocarbon solvent. […] Preferred ethers include diethyl ether, TBME, diisopropyl ether and the like. Preferred non-polar hydrocarbon solvents include pentane, hexane, heptane, petroleum ether and the like. The preferred petroleum ether is that fraction which boils at 35-60° C. The ratio of non-polar hydrocarbon solvent (or petroleum ether) to ether may range from 4:1, to about 2:1, more preferably, about 3:1. One of ordinary skill in the art may determine other ratios with no more than routine experimentation.

| SMILES | solubility in non-polar solvents (in words) [1] | solubility in supercritical carbon dioxide (in words) [2] | solubility in hexane (Solubility in hexane) [mL/mg] |
| --- | --- | --- | --- |
| CC(=O)OC1C=C(C)C(C=CC(C)=CC=CC(C)=CC=CC=C(C)C=CC=C(C)C=CC2=C(C)CC(O)CC2(C)C)C(C)(C)C1 (stereo not shown) [3′-epilutein-3′-acetate] | highly soluble |  |  |
| CC1=C[C@@H](O)CC(C)(C)[C@H]1/C=C/C(C)=C/C=C/C(C)=C/C=C/C=C(C)/C=C/C=C(C)/C=C/C1=C(C)C[C@@H](O)CC1(C)C [3′-epilutein, (3R,3′S,6′R)-lutein] | slightly more soluble than (3R,3′R,6′R)-lutein | by far greater than that of (3R,3′R,6′R)-lutein and (3R,3′R)-zeaxanthin | 13 |
